{"source": "paper PMC10382584", "about": "“Macrocyclization of linear molecules by deep learning to facilitate macrocyclic drug candidates discovery” (Nature Communications, 2023);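 note: KINOMEscan kinase panel binding assay, signal normalized between DMSO as 100% and a positive control compound as 0%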", "experiment_in_all_cases": "biochemical", "design_in_all_cases": "DiscoveRx KINOMEscan competition binding, percent of DMSO control signal at 100 nM", "conditions_in_all_cases": "read-out: Fig. 4a / Percent Control / Compound 1; percent of DMSO control, competition binding", "key": {"QSK": {"target": "T1, QSK (Homo sapiens, UniProt Q9Y2K2)", "T1 construct": "gene SIK3"}, "ACVR1B": {"target": "ACVR1B (Homo sapiens, UniProt P36896)", "sequence (P36896 whole entry)": "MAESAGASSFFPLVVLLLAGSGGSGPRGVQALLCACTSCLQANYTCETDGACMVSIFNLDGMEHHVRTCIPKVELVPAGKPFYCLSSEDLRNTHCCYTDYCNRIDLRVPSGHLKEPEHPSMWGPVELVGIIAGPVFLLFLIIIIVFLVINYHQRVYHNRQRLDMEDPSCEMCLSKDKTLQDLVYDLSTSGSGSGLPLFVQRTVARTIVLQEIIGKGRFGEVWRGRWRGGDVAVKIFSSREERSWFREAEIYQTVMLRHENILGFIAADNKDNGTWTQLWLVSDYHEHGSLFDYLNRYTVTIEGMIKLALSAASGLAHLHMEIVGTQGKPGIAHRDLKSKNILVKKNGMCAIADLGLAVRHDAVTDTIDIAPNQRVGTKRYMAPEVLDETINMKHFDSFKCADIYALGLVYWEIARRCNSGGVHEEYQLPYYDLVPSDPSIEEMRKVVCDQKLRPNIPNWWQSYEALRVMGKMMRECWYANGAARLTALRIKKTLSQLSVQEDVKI"}, "PRKCI": {"target": "PRKCI (Homo sapiens, UniProt P41743)"}, "PIK3CD": {"target": "PIK3CD (Homo sapiens, UniProt O00329)"}, "MYO3B": {"target": "MYO3B (Homo sapiens, UniProt Q8WXR4)"}, "TRPM6": {"target": "TRPM6 (Homo sapiens, UniProt Q9BX84)"}, "TLK1": {"target": "TLK1 (Homo sapiens, UniProt Q9UKI8)"}, "DYRK1A": {"target": "DYRK1A (Homo sapiens, UniProt Q13627)"}, "JNK1": {"target": "T2, JNK1 (Homo sapiens, UniProt P45983)", "T2 construct": "gene MAPK8"}, "IKK-epsilon": {"target": "T3, IKK-epsilon (Homo sapiens, UniProt Q14164)", "T3 construct": "gene IKBKE"}, "MAP3K15": {"target": "MAP3K15 (Homo sapiens, UniProt Q6ZN16)", "sequence (Q6ZN16 whole entry)": "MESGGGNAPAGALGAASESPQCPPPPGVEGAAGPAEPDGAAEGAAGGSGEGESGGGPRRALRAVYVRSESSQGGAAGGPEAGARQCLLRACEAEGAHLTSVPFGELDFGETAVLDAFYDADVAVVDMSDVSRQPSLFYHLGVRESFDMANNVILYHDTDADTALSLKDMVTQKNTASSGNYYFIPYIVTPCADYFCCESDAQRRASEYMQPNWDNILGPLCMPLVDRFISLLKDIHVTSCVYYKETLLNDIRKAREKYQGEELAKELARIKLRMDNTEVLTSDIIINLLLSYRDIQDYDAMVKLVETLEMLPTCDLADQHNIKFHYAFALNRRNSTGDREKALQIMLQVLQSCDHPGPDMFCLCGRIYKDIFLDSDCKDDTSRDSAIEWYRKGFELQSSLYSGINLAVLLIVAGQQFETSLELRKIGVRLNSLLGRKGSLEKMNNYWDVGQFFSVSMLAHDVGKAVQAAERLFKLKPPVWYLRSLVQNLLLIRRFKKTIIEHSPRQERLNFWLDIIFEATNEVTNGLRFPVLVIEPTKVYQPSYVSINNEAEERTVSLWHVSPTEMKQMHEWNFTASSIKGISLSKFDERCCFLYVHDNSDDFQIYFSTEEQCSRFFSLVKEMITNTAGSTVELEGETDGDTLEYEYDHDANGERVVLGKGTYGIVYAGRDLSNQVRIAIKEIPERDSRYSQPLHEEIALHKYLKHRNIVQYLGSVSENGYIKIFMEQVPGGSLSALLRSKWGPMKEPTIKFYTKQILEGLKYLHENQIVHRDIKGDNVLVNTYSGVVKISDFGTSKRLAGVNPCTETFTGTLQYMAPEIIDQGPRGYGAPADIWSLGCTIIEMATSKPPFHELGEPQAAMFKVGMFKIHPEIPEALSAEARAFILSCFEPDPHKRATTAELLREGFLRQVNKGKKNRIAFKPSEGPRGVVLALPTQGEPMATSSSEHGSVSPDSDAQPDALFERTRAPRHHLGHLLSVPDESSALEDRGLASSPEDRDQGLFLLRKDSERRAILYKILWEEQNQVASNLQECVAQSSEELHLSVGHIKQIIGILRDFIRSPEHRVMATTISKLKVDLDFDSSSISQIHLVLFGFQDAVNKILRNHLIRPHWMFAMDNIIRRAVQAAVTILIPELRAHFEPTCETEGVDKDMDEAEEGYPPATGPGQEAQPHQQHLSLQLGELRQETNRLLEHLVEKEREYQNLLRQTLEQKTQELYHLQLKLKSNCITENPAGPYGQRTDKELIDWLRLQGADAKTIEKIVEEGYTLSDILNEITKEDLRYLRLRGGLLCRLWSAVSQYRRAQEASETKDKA"}, "INSRR": {"target": "INSRR (Homo sapiens, UniProt P14616)"}, "CAMK2B": {"target": "CAMK2B (Homo sapiens, UniProt Q13554)"}, "MARK4": {"target": "MARK4 (Homo sapiens, UniProt Q96L34)"}, "[1]": {"target": "T4, RPS6KA5(Kin.Dom.2-C-terminal) (Homo sapiens, UniProt O75582)", "T4 construct": "Kin.Dom.2-C-terminal"}, "SRPK2": {"target": "SRPK2 (Homo sapiens, UniProt P78362)", "sequence (P78362 whole entry)": "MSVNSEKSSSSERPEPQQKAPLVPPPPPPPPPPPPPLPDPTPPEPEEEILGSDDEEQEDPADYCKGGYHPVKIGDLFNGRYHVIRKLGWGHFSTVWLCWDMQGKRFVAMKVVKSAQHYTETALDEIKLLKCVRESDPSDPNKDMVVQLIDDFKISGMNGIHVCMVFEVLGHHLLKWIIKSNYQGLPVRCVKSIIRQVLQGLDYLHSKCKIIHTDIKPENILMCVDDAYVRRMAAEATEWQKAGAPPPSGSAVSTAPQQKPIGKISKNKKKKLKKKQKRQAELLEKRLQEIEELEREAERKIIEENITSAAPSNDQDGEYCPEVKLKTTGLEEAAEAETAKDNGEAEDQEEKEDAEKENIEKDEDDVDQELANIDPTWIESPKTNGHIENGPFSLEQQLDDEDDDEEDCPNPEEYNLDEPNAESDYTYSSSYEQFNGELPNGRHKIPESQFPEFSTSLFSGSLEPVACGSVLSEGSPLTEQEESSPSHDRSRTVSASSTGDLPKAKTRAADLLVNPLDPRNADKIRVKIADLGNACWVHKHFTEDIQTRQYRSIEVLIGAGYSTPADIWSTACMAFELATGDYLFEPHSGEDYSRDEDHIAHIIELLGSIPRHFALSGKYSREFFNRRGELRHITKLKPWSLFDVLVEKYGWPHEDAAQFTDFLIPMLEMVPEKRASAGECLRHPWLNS"}, "HUNK": {"target": "HUNK (Homo sapiens, UniProt P57058)"}, "CDK8": {"target": "CDK8 (Homo sapiens, UniProt P49336)"}, "MEK6": {"target": "T5, MEK6 (Homo sapiens, UniProt P52564)", "T5 construct": "gene MAP2K6"}, "ERK2": {"target": "T6, ERK2 (Homo sapiens, UniProt P28482)", "T6 construct": "gene MAPK1"}, "PAK3": {"target": "PAK3 (Homo sapiens, UniProt O75914)", "sequence (O75914 whole entry)": "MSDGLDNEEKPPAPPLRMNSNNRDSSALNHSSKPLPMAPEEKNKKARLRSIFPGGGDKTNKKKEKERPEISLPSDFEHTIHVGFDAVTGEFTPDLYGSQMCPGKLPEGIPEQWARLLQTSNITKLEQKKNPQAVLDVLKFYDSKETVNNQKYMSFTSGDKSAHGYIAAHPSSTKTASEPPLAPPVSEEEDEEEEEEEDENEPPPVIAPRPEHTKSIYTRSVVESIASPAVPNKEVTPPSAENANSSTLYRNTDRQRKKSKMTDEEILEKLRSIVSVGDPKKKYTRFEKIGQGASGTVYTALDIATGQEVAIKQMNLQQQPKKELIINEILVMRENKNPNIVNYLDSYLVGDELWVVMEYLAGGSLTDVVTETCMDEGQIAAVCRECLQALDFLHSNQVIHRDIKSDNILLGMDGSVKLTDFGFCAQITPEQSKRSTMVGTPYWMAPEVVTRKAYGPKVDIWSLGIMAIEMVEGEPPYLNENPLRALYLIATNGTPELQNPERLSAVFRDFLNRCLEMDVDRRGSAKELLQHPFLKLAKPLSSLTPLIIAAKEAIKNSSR"}, "SGK2": {"target": "SGK2 (Homo sapiens, UniProt Q9HBY8)"}, "PDPK1": {"target": "PDPK1 (Homo sapiens, UniProt O15530)"}, "ERBB3": {"target": "ERBB3 (Homo sapiens, UniProt P21860)", "sequence (P21860 whole entry)": "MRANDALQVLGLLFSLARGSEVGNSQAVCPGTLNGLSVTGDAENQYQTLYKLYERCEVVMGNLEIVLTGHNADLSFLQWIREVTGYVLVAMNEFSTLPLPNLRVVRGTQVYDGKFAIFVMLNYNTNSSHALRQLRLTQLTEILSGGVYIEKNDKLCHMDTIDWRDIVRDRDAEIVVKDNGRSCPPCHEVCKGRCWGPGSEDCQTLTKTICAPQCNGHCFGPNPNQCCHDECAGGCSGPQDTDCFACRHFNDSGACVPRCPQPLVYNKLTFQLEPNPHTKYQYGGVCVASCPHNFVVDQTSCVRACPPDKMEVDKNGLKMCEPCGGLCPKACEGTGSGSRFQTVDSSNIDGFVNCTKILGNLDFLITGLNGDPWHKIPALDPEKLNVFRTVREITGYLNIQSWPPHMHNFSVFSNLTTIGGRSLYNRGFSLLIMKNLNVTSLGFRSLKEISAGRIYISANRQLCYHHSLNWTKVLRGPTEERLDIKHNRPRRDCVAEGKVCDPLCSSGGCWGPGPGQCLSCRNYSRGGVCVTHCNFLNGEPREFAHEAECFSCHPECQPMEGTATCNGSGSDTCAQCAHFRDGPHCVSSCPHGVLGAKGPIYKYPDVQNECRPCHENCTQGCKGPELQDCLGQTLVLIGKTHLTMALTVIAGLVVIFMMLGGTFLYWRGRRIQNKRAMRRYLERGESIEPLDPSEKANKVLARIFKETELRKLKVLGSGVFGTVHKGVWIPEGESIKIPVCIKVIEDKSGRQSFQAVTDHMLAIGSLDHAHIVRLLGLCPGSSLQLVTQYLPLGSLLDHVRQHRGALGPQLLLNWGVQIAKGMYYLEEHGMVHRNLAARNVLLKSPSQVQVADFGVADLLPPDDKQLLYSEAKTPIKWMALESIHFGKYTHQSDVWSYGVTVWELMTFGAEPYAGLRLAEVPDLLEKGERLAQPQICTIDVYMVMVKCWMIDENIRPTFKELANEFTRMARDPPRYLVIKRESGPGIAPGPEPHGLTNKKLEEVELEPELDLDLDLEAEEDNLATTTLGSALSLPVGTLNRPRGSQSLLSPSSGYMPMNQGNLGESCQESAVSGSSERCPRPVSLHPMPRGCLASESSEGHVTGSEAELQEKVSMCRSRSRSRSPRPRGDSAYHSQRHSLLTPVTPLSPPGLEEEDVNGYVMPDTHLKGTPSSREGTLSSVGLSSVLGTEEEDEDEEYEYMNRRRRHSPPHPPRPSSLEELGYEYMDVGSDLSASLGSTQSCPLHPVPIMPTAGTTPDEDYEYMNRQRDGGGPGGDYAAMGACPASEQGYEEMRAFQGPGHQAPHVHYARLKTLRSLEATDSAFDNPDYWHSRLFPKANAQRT"}, "GRK1": {"target": "GRK1 (Homo sapiens, UniProt Q15835)", "sequence (Q15835 whole entry)": "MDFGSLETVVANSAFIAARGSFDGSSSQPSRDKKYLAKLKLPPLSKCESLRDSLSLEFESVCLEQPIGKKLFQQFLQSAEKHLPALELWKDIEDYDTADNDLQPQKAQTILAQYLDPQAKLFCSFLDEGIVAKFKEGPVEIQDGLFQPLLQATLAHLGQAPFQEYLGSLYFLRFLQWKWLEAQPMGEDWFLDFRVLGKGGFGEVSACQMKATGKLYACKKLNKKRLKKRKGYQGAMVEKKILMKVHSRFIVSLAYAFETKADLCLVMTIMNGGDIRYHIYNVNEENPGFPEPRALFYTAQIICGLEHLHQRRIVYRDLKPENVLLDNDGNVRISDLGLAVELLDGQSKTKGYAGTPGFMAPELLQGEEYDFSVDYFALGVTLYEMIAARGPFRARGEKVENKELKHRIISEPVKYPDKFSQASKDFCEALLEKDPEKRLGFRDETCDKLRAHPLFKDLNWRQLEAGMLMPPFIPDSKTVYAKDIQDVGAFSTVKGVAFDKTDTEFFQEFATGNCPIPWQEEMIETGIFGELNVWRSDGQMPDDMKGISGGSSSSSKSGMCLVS"}}}
{"compound": "Cc1cnc2nc1Nc1cccc(c1)COCc1cc(ccc1OCCN1CCCC1)N2", "note": "[Compound 1]", "values": [{"measurement": "remaining binding at 0.1 µM", "setting": "QSK", "result": 63, "unit": "%"}, {"measurement": "remaining binding at 0.1 µM", "setting": "ACVR1B", "result": 100, "unit": "%"}, {"measurement": "remaining binding at 0.1 µM", "setting": "PRKCI", "result": 80, "unit": "%"}, {"measurement": "remaining binding at 0.1 µM", "setting": "PIK3CD", "result": 89, "unit": "%"}, {"measurement": "remaining binding at 0.1 µM", "setting": "MYO3B", "result": 99, "unit": "%"}, {"measurement": "remaining binding at 0.1 µM", "setting": "TRPM6", "result": 85, "unit": "%"}, {"measurement": "remaining binding at 0.1 µM", "setting": "TLK1", "result": 100, "unit": "%"}, {"measurement": "remaining binding at 0.1 µM", "setting": "DYRK1A", "result": 88, "unit": "%"}, {"measurement": "remaining binding at 0.1 µM", "setting": "JNK1", "result": 50, "unit": "%"}, {"measurement": "remaining binding at 0.1 µM", "setting": "IKK-epsilon", "result": 100, "unit": "%"}, {"measurement": "remaining binding at 0.1 µM", "setting": "MAP3K15", "result": 68, "unit": "%"}, {"measurement": "remaining binding at 0.1 µM", "setting": "INSRR", "result": 89, "unit": "%"}, {"measurement": "remaining binding at 0.1 µM", "setting": "CAMK2B", "result": 94, "unit": "%"}, {"measurement": "remaining binding at 0.1 µM", "setting": "MARK4", "result": 77, "unit": "%"}, {"measurement": "remaining binding at 0.1 µM", "setting": "[1]", "result": 100, "unit": "%"}, {"measurement": "remaining binding at 0.1 µM", "setting": "SRPK2", "result": 100, "unit": "%"}, {"measurement": "remaining binding at 0.1 µM", "setting": "HUNK", "result": 100, "unit": "%"}, {"measurement": "remaining binding at 0.1 µM", "setting": "CDK8", "result": 100, "unit": "%"}, {"measurement": "remaining binding at 0.1 µM", "setting": "MEK6", "result": 100, "unit": "%"}, {"measurement": "remaining binding at 0.1 µM", "setting": "ERK2", "result": 100, "unit": "%"}, {"measurement": "remaining binding at 0.1 µM", "setting": "PAK3", "result": 100, "unit": "%"}, {"measurement": "remaining binding at 0.1 µM", "setting": "SGK2", "result": 97, "unit": "%"}, {"measurement": "remaining binding at 0.1 µM", "setting": "PDPK1", "result": 98, "unit": "%"}, {"measurement": "remaining binding at 0.1 µM", "setting": "ERBB3", "result": 100, "unit": "%"}, {"measurement": "remaining binding at 0.1 µM", "setting": "GRK1", "result": 77, "unit": "%"}]}
